Literature values in article PMC5036423 (CPT: Pharmacometrics & Systems Pharmacology, 2016).

What was measured:
intact PTH = details: first-in-human phase I study
[1] = 4 weeks of 5 mg TIW i.v. dosing, patients on HD

Accumulation in Cmax [1]: approximately twofold | Accumulation in area under the curve over 48 hours [1]: threefold | Plasma exposure (Cmax and area under the curve over 48 hours) versus dose (TIW i.v. administration in patients on HD): increased proportionally with the dose | Fraction of the drug eliminated by TIW HD (patients receiving TIW hemodialysis): ~50%
SMILES: CC(=O)N[C@H](CSSC[C@H](N)C(=O)O)C(=O)N[C@H](C)C(=O)N[C@H](CCCNC(=N)N)C(=O)N[C@H](CCCNC(=N)N)C(=O)N[C@H](CCCNC(=N)N)C(=O)N[C@H](C)C(=O)N[C@H](CCCNC(=N)N)C(N)=O [etelcalcetide]
Effect on intact PTH in healthy subjects (intact PTH): showed intact PTH lowering effect
